Data: ChEMBL document CHEMBL1144057, “Guiaflavine, a new bisindole quaternary alkaloid from the stem bark of Strychnos guianensis” (J Nat Prod, 1999)

Tested on: Mus musculus
Assay: Toxicity in ip dosed NMRI mouse
Format: organism-based
Conditions: in vivo

CCc1c[n+]2c(cc1C1=CN3c4ccccc4[C@@]45CC[N+]6(C)CC7=CCO[C@@H]1[C@@H]([C@H]34)[C@H]7C[C@@H]56)-c1[nH]c3cccc(OC)c3c1CC2.[Cl-].[Cl-] (stereo partly specified) [GUIAFLAVINE]
LD100: 100 mg/kg
